Columns and labels:
[1] = test system: Wnt activity (Wnt-responsive Sp5 promoter-luciferase reporter in SW480 cells); test: Wnt activity screening assay: Sp5-Luc reporter gene in SW480 colon carcinoma cells; format: cell-based; settings: Homo sapiens
How it was run: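 IC50 values come from variable-slope four-parameter fits of luciferase signal normalized to DMSO wells. Stable Sp5-Luc reporter SW480 colon carcinoma cells were exposed to compounds in a 3-fold dilution series (source plates from 10 mM stock) for forty-two hours at 37 °C.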

[2] = test system: primary human fibroblasts derived from IPF patients (LL29 cells); test: Inhibition of fibrotic process: αSMA staining in TGF-β1-treated primary human fibroblasts from IPF patients (LL29 cells); format: cell-based; settings: Fibroblast, 96 h, LL29 cells treated with TGF-β1 (20 ng/mL), 4 days, 11-point dose-response from 10 μM to 1.87 nM, read-out: Inhibition of fibrosis EC50
Excerpt: The above synthesized compounds were screened using primary human fibroblasts (derived from IPF patients) treated with TGF-β1 to determine their ability to inhibit the fibrotic process.
Primary human fibroblasts derived from IPF patients (LL29 cells) [^1Xiaoqiu Liu, et. al., “Fibrotic Lung Fibroblasts Show Blunted Inhibition by cAMP Due to Deficient cAMP Response Element-Binding Protein Phosphorylation”, Journal of Pharmacology and Experimental Therapeutics (2005), 315(2), 678-687; ^2Watts, K. L., et. al., “RhoA signaling modulates cyclin D1 expression in human lung fibroblasts; implications for idiopathic pulmonary fibrosis”, Respiratory Research (2006), 7(1), 88] were obtained from American Type Culture Collection (ATCC) and expanded in F12 medium supplemented with 15% Fetal Bovine Serum and Penicillin/Streptomycin.
Each compound was dissolved in DMSO as a 10 mM stock and used to prepare compound source plates. Serial dilution (1:2, 11-point dose-response curves from 10 μM to 1.87 nM) and compound transfer was performed using the ECHO 550 (Labcyte, Sunnyvale, Calif.) into 384-well clear bottom assay plates (Greiner Bio-One) with appropriate DMSO backfill for a final DMSO concentration of 0.1%. LL29 cells were plated at 1,500 cells/well in 80 μl/well F12 medium supplemented with 1% Fetal Bovine Serum. One hour after addition of the cells, TGF-β1 (Peprotech; 20 ng/mL) was added to the plates to induce fibrosis (ref. 1 and 2 above). Wells treated with TGF-β1 and containing DMSO were used as controls. Cells were incubated at 37° C. and 5% CO2 for 4 days. Following incubation for 4 days, SYTOX green nucleic acid stain (Life Technologies [Thermo Fisher Scientific]) was added to the wells at a final concentration of 1 uM and incubated at room temperature for 30 min. Cells were then fixed using 4% formaldehyde (Electron Microscopy Sciences), washed 3 times with PBS followed by blocking and permeabilization using 3% Bovine Serum Albumin (BSA; Sigma) and 0.3% Triton X-100 (Sigma) in PBS. Cells were then stained with antibody specific to α-smooth muscle actin (αSMA; Abcam) (ref. 1 and 2 above) in 3% Bovine Serum Albumin (BSA; Sigma) and 0.3% Triton X-100 (Sigma) in PBS, and incubated overnight at 4° C. Cells were then washed 3 times with PBS, followed by incubation with Alexa Flor-647 conjugated secondary antibody (Life Technologies [Thermo Fisher Scientific]) and DAPI at room temperature for 1 hour. Cells were then washed 3 times with PBS and plates were sealed for imaging. αSMA staining was imaged by excitation at 630 nm and emission at 665 nm and quantified using the Compartmental Analysis program on the CellInsight CX5 (Thermo Scientific). Dead or apoptotic cells were excluded from analysis based on positive SYTOX green staining. % of total cells positive for αSMA were counted in each well and normalized to the average of 11 wells treated with TGF-β1 on the same plate using Dotmatics' Studies Software. The normalized averages (fold change over untreated) of 3 replicate wells for each compound concentration were used to create dose-responses curves and EC50 values were calculated using non-linear regression curve fit in the Dotmatics' Studies Software. The EC50 values are reported.

Row | Structure (SMILES) | IC50 [1] [nM] | EC50 [2] [nM]
1 | c1cc(-c2cncc3[nH]c(-c4n[nH]c5cnc(-c6cncc(CNCC7CCCC7)c6)cc45)nc23)co1 [Compound 284, 1-Cyclopentyl-N-((5-(3-(7-(furan-3-yl)-3H-imidazo[4,5-c]pyridin-2-yl)-1H-pyrazolo[3,4-c]pyridin-5-yl)pyridin-3-yl)methyl)methanamine] | 261 | 908
2 | CN(C)c1cncc(-c2cc3c(-c4nc5c(-c6cccs6)cncc5[nH]4)n[nH]c3cn2)c1 [Compound 293, N,N-Dimethyl-5-(3-(7-(thiophen-2-yl)-3H-imidazo[4,5-c]pyridin-2-yl)-1H-pyrazolo[3,4-c]pyridin-5-yl)pyridin-3-amine] | 319 | ≤ 9
3 | CN(C)Cc1cncc(-c2cc3c(-c4nc5c(-c6cccs6)cncc5[nH]4)n[nH]c3cn2)c1 [Compound 299, N,N-Dimethyl-1-(5-(3-(7-(thiophen-2-yl)-3H-imidazo[4,5-c]pyridin-2-yl)-1H-pyrazolo[3,4-c]pyridin-5-yl)pyridin-3-yl)methanamine] | 588 | ≤ 9
4 | Fc1ccc(-c2cncc3[nH]c(-c4n[nH]c5cnc(-c6cncc(CN7CCCC7)c6)cc45)nc23)s1 [Compound 326, 3-(7-(5-Fluorothiophen-2-yl)-3H-imidazo[4,5-c]pyridin-2-yl)-5-(5-(pyrrolidin-1-ylmethyl)pyridin-3-yl)-1H-pyrazolo[3,4-c]pyridine] | 772 | ≤ 9
5 | Cc1ccc(-c2cncc3[nH]c(-c4n[nH]c5cnc(-c6cncc(CN7CCCCC7)c6)cc45)nc23)s1 [Compound 353, 3-(7-(5-Methylthiophen-2-yl)-3H-imidazo[4,5-c]pyridin-2-yl)-5-(5-(piperidin-1-ylmethyl)pyridin-3-yl)-1H-pyrazolo[3,4-c]pyridine] | 1040 | 251

These reach a lower IC50 [1]. Values come first.

Row | IC50 [1] [nM] | Structure (SMILES) | EC50 [2] [nM]
6 | 70.5 | FC1(F)CCN(Cc2cncc(-c3cc4c(-c5nc6c(-c7cccs7)cncc6[nH]5)n[nH]c4cn3)c2)C1 [Compound 311, 5-(5-((3,3-Difluoropyrrolidin-1-yl)methyl)pyridin-3-yl)-3-(7-(thiophen-2-yl)-3H-imidazo[4,5-c]pyridin-2-yl)-1H-pyrazolo[3,4-c]pyridine] | 254
7 | 35.1 | O=C(Nc1cncc(-c2cc3c(-c4nc5c(-c6cccs6)cncc5[nH]4)n[nH]c3cn2)c1)C1CC1 [Compound 305, N-(5-(3-(7-(Thiophen-2-yl)-3H-imidazo[4,5-c]pyridin-2-yl)-1H-pyrazolo[3,4-c]pyridin-5-yl)pyridin-3-yl)cyclopropanecarboxamide] | > 10000
8 | 32.8 | O=C(Nc1cncc(-c2cc3c(-c4nc5c(-c6ccc(F)s6)cncc5[nH]4)n[nH]c3cn2)c1)C1CCC1 [Compound 332, N-(5-(3-(7-(5-Fluorothiophen-2-yl)-3H-imidazo[4,5-c]pyridin-2-yl)-1H-pyrazolo[3,4-c]pyridin-5-yl)pyridin-3-yl)cyclobutanecarboxamide] | 1050
9 | 25.4 | CCNCc1cncc(-c2cc3c(-c4nc5c(-c6ccc(C)s6)cncc5[nH]4)n[nH]c3cn2)c1 [Compound 344, N-((5-(3-(7-(5-Methylthiophen-2-yl)-3H-imidazo[4,5-c]pyridin-2-yl)-1H-pyrazolo[3,4-c]pyridin-5-yl)pyridin-3-yl)methyl)ethanamine] | 60
10 | 17 | Cc1ccc(-c2cncc3[nH]c(-c4n[nH]c5cnc(-c6cncc(NC(=O)C(C)(C)C)c6)cc45)nc23)s1 [Compound 346, N-(5-(3-(7-(5-Methylthiophen-2-yl)-3H-imidazo[4,5-c]pyridin-2-yl)-1H-pyrazolo[3,4-c]pyridin-5-yl)pyridin-3-yl)pivalamide] | 30
11 | 7.5 | Cc1ccc(-c2cncc3[nH]c(-c4n[nH]c5cnc(-c6cncc(NC(=O)C(C)C)c6)cc45)nc23)s1 [Compound 347, N-(5-(3-(7-(5-Methylthiophen-2-yl)-3H-imidazo[4,5-c]pyridin-2-yl)-1H-pyrazolo[3,4-c]pyridin-5-yl)pyridin-3-yl)isobutyramide] | ≤ 9

— patent US10052331B2, “3-(3H-imidazo[4,5-C]pyridin-2-yl)-1H-pyrazolo[3,4-C]pyridine and therapeutic uses thereof” (Samumed, LLC, priority 2014, dated 2018)
